# Source: patent US20250262188A1, “Methods of Increasing the Plasma Drug Exposure of Anticancer Agents” (Scandion Oncology A/S, priority 2021, published 2025)
# Assays:
# [1] = biological target: T1, ABCG2 (Homo sapiens, UniProt Q9UNQ0); assay: Flux assays (dye-flux, bi-directional flux, 3H-SN38 accumulation, vesicular uptake) in colon cancer cells (Example 4); assay type: cell-based; settings: parental and SN38-resistant HT29 and LoVo cells
# T1 construct: endogenous in cells; host or cells: HT29 and LoVo, parental and SN38-resistant
# T1 sequence (Q9UNQ0 1-655): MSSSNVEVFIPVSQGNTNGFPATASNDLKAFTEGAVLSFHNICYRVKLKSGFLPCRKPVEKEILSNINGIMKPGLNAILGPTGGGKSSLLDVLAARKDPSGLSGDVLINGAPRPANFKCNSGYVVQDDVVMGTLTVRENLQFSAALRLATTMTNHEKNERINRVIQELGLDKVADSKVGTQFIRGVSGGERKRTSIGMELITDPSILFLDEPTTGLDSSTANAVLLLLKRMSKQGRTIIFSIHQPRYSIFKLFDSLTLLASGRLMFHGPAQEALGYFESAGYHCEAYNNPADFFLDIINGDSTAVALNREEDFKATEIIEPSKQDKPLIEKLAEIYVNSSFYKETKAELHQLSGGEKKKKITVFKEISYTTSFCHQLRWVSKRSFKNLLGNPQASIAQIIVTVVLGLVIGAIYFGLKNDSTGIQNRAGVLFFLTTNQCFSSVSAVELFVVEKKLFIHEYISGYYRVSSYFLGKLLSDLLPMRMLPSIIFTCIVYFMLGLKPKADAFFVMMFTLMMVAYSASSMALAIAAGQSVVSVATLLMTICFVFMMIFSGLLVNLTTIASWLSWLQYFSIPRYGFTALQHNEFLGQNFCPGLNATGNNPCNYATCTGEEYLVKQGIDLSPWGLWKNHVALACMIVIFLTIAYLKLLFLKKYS
# Source text: (§1) Pairs of parental (sensitive) and SN38-resistant human colon cancer cell lines (HT29 and LoVo) were used. ABCG2 overexpression and effects of SCO-101 on ABCG2 was investigated by western blot, qPCR, dye-flux assays, bi-directional flux assays, 3H-SN38 accumulation assays and vesicular uptake assays. The effect of SCO-101 on SN38 re-sensitization was investigated by cell viability assays (MTT/PrestoBlue) and clonogenic assays.
# [2] = biological target: T2, UGT1A1 (Homo sapiens, UniProt P22309); assay: In vitro UGT1A1 inhibition, recombinant human enzyme assays (Example 5); assay type: biochemical
# T2 sequence (P22309 26-533): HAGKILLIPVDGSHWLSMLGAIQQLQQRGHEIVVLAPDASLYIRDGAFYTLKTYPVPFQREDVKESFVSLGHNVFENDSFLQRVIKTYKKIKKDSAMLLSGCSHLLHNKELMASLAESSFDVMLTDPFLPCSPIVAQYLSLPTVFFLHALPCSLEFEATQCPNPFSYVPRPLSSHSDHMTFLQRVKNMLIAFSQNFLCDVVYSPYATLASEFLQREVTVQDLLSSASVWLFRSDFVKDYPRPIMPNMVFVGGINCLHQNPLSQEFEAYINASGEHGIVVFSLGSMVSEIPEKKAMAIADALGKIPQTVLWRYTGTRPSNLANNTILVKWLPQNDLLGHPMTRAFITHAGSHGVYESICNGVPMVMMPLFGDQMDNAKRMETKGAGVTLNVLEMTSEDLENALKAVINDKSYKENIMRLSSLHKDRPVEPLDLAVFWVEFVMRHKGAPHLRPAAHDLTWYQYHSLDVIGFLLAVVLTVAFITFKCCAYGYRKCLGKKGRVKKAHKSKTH
# Source text: The term “UGT1A1 inhibitor” as used herein refers to a molecule which is capable of binding to human uridine diphosphate (UDP)-glycuronosyl transferase (UGT1A1), particularly in humans or animals and decrease the enzymatic activity of the UGT1A1. […] Whether or not a particular molecule is an UGT1A1 inhibitor can be determined by examining the molecule's IC50 in vitro in a UGT1A1 inhibition assays known in the art.
# The inhibition of UGT1A1 was investigated by recombinant human enzyme assays.
# [3] = tested on: SN38-resistant human colon cancer cell lines (HT29 and LoVo); assay: Cell viability (MTT/PrestoBlue) and clonogenic assays (Example 4); assay type: cell-based; settings: SN-38-resistant cells exposed to SCO-101 and SN-38
# Source text: as §1
# [4] = Plasma concentrations of SCO-101 and SN-38 in patients upon repeated administration of SCO-101 (Example 1); assay type: in vivo, human; settings: 150 mg SCO-101 repeated every 24 hours, FIG. 1D
# Procedure: On days 1, 2, 3, 4, 5 and 6 in each treatment cycle, patients received one fixed daily dose of 150 mg SCO-101 taken in the morning at least 30 minutes before ingestion of food. On day 5 to 7, patients received FOLFIRI as specified for Colorectal cancer combination regimen 2. Blood samples were taken from patients at predefined timepoints according to the study protocol. During the first cycle of treatment, blood samples for pharmacokinetic analysis of SCO-101, irinotecan, and SN-38 were taken as follows: • Day 1; (pre-SCO-101 administration, 1; 4; 5; 6; 8); only for PK analysis of SCO-101 • Day 2; […] (pre-SCO-101 administration, 1; 4; 5; 6; 8) • Day 6; […] (48 hours), • Day 9; (96 hours). Blood samples were collected in 4 mL blood-collection tubes using lithium heparin as the anti-coagulant. Blood samples were centrifuged, and the resulting plasma is withdrawn and stored at −70° C. until analysis. […] The method and system, including validation were according to industry standard. Data were analysed using commercially available software such as Win-Non-Lin (available from Certara inc.) SCO-101 and Irinotecan was administered as described in the materials and methods section. Blood samples were withdrawn and analysed as specified. […] Raw data was then plotted using win-non-lin software to obtain relevant pharmacokinetic parameters, e.g. Cmax and AUC. […]
compound,measurement,setting,value
O=C(Nc1cc(C(F)(F)F)cc(C(F)(F)F)c1)Nc1ccc(Br)cc1-c1nnn[nH]1 [SCO-101],Effect on the activity of ABCG2 in flux assays,[1],inhibited the activity of ABCG2
same,IC50,[2]; read-out: IC50 towards UGT1A1,~100 nM
same,UGT1A1 inhibition (in words),[2]; recombinant human enzyme,potent inhibitor of UGT1A1
same,Effect on cell viability and colony formation of the combination with SN-38 compared to either drug alone,[3],synergistic inhibitory effect
same,SCO-101 plasma level at which levels stabilize over time,[4]; modelled from patient data,around 55 μg/mL
same,half-life,"[4]; human, plasma, oral, read-out: SCO-101 half-life after stopping the administration (converted)",~24 h
